From patent publication US12584101B2, “Compositions and method of use for H5 competent Bifidobacterium longum subsp. Infantis” (INFINANT HEALTH, INC., priority 2018, dated 2026) come the findings set out here.

The test has as its system Blon_0881 and Blon_2343. As to the kind of experiment: qPCR gene expression of Blon_0881 and Blon_2343 relative to Blon_0393 (activation). Format: cell-based, B. infantis. The settings on record: 5, 10, 15 and 20 g/L of NAG, rest glucose to 20 g/L; stationary phase. How it is done:
In some embodiments, gene activation relates to Blon_0881 and Blon_2343 and their expression is greater than 1; that is, when the delta delta cycle threshold (2^ΔΔCt) is greater than 1, DDCT is calculated using Blon_0393, or another constitutively expressed gene as a reference. The result (activation) is the fold change (2^ΔΔCt>1) of gene expression. Determined based on the double delta CT (2^ΔΔCt) method (Livak K and Schmittgen T. (2001) Analysis of relative gene expression data using real-time quantitative PCR and the 2(−Delta Delta C(T)) Method. Methods: 25: 402-8). In other embodiments, other genes from Table 1 are used in addition to Blon_0881 and Blon_2343.
A series of fermentations were conducted where B. infantis was grown on various concentrations of NAG and glucose. MRS broth was prepared without a carbon source. The carbon source was added at 2% of the media or 20 g/L. The carbon source was varied according to Table 5. The cells were grown to the stationary phase and spun down. The supernatant was removed and the cells lysed. RNA was extracted. The cells were tested for increase in gene expression of Blon_0881 and Blon_2343 by qPCR relative to Blon_0393. The 2^ΔΔCt was greater than 1 confirming activation for 5, 10, 15 and 20 g/L of NAG. […]

For “N-acetyl-glucosamine/galactosamine (NAG)”, the “2^ΔΔCt of Blon_0881 and Blon_2343 relative to Blon_0393” value is on record as “greater than 1”.
